Experimental data published in article PMC3914206.

Tests used:
panel of 442 kinases [1] = biological target: T1, panel of 442 kinases (Homo sapiens, UniProt P16234); type: binding; conditions: Compound Concentration 10 µM
T1 construct: purchased KINOMEscan
Text: (§1) We assessed the selectivity of members of this scaffold using the KINOMEscan methodology across a near comprehensive panel of 442 kinases [[18,27]].

panel of 442 kinases [2] = biological target: T2, panel of 442 kinases (Homo sapiens, UniProt O95382); type: binding; conditions: Compound Concentration 10 µM
T2 construct: purchased KINOMEscan
T2 sequence (O95382 1-1288): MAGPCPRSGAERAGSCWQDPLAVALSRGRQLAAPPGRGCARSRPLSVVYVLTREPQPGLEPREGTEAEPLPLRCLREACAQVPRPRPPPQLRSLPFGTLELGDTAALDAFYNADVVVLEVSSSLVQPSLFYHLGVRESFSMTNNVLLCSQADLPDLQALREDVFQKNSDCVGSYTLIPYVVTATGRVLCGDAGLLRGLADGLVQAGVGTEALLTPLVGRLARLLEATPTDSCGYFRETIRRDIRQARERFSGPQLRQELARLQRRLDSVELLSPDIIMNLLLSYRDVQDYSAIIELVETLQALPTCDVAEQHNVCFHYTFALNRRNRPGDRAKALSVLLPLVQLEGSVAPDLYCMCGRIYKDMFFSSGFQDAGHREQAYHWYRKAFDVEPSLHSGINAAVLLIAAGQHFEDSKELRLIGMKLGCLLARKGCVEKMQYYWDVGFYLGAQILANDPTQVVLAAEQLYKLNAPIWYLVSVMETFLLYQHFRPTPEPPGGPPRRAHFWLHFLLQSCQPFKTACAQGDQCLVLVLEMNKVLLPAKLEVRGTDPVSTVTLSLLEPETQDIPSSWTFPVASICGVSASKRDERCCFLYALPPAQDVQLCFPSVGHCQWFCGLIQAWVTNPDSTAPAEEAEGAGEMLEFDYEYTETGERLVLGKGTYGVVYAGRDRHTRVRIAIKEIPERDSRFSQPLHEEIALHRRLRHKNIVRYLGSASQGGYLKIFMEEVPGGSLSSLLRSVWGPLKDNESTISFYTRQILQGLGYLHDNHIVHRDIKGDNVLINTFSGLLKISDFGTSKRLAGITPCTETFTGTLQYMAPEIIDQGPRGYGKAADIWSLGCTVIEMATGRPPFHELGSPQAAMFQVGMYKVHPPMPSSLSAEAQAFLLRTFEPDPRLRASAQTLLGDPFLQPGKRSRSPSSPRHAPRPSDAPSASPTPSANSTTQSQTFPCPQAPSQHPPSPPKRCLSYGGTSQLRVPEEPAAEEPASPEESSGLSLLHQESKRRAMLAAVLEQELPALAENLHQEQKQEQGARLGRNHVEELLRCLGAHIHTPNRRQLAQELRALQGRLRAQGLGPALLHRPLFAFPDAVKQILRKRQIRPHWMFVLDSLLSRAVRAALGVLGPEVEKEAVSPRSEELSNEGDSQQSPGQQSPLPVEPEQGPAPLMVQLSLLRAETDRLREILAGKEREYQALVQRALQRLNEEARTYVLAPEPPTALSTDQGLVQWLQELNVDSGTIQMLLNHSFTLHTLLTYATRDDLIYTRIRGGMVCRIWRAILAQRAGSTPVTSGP
Text: as §1

T1 sequence (P16234 24-1089): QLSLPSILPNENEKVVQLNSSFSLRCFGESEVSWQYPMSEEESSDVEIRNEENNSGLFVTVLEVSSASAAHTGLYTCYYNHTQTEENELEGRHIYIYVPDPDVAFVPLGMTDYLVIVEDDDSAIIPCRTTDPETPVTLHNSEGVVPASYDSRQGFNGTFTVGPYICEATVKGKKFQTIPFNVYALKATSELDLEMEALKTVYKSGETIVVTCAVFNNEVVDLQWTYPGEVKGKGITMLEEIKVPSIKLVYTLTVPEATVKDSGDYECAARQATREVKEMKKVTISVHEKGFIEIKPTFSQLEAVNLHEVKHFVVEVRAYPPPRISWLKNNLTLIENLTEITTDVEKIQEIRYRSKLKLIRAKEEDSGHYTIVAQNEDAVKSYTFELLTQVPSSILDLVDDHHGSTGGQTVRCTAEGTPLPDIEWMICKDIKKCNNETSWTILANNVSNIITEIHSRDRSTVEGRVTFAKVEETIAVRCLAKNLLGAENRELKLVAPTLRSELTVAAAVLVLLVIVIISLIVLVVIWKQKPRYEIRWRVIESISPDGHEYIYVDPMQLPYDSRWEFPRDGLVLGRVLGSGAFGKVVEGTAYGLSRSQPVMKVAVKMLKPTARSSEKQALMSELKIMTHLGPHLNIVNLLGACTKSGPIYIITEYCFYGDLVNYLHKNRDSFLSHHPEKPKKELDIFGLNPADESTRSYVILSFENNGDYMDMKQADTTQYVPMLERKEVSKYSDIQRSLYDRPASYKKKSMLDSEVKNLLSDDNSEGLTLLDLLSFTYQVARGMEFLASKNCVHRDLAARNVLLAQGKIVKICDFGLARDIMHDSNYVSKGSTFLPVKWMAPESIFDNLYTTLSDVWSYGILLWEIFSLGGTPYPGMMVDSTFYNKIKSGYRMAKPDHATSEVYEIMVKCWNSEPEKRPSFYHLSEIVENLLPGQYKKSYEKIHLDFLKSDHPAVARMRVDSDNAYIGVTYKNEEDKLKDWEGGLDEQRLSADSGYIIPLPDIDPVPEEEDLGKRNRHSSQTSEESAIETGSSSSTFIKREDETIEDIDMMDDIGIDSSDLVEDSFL

SMILES | KINOMEscan: PDGFRA (panel of 442 kinases [1]) | KINOMEscan: ASK2 (panel of 442 kinases [2])
COc1cc(C(=O)N2CCC(N3CCN(C)CC3)CC2)ccc1Nc1ncc2c(n1)N(C)c1ccccc1C(=O)N2C [15 (LRRK2-IN-1)] | 100 | 100
COc1cc(C(=O)N2CCC(N3CCN(C)CC3)CC2)ccc1Nc1ncc2c(n1)N(C1CCCC1)c1ccccc1C(=O)N2C [Compound 25, 11-cyclopentyl-2-((2-methoxy-4-(4-(4-methylpiperazin-1-yl)piperidine-1-carbonyl)phenyl)amino)-5-methyl-5H-benzo[e]pyrimido[5,4-b][1,4]diazepin-6(11H)-one] | 100 | 100
CCOc1cc(C(=O)N2CCC(N3CCN(C)CC3)CC2)ccc1Nc1ncc2c(n1)N(C1CCCC1)c1ccccc1C(=O)N2C [Compound 26] | 100 | 100
